Test results as given in publication PMC11402846, “Does a postmortem redistribution affect the concentrations of the 7 azaindole-derived synthetic cannabinoid 5F-MDMB-P7AICA in tissues and body fluids following pulmonary administration to pigs?” (Archives of Toxicology, 2024).

Experiments:
[1] = death case, cited from earlier work; for central blood (CB) levels versus peripheral blood (PB) levels: PMI: 20 h, ref Zaitsu et al. ([2015])
[2] = parameters: method as in Walle et al. [2023]; conditions: authentic fatal case, comparable survival time after drug intake; ref Walle et al. [2023]; cited from earlier work
[3] = Perimortem and postmortem concentrations in tissues and body fluids after pulmonary administration of 5F-MDMB-P7AICA to pigs (LC-MS/MS); format: in vivo; conditions: pig
Method: The experiments were conducted in compliance with the German legislation on protection of animals and the National Institutes of Health Guide for the Care and Use of Laboratory Animals (permission number 32/2018). Six domestic male pigs (Swabian Hall strain; body weight [BW] 40–51.2 kg, 3 months old) were kept with free access to water and standard daily food (OlymPig fattening feed, Raiffeisen, Münster, Germany). One night prior to the experiments, the animals were kept fasting. […] The room temperature was 22 ± 1 °C with a humidity of 55 ± 10%.
As previously described (Doerr et al. [2020]; Schaefer et al. [2019], [2020a]), an ethanolic solution of 5 mg/mL 5F-MDMB-P7AICA was prepared. An aliquot of 1.600–2.048 mL was filled up with ethanol to a total volume of 2 mL, if needed to achieve a concentration of 200 µg per kg BW. The SC was administered inhalatively over 6.5–8 min, using a M-Neb flow + ventilation ultrasonic nebulizer MN-300/7 (Nebutec, Elsenfeld, Germany) in the inspiration-triggered mode.
Animal euthanasia was conducted eight hours after the drug administration using T 61 (embutramide, 0.12 mL/kg BW, Intervet Deutschland GmbH, Unterschleißheim, Germany). Afterwards, the abdominal cavity was opened. Samples of the following organs, tissues and body fluids were collected (PMI 0) and stored at − 20 °C until further analysis: Brain (cerebrum), lungs and liver with no differentiation between the lobes, kidneys, muscle tissue (from the hindleg), adipose tissue (subcutaneous (sc), dorsal, perirenal), bile fluid, duodenum content, urine (only at PMI 0) and PB (V. jugularis) as well as CB.
The abdominal cavity was sutured leaving the organs in situ and the animal bodies were kept at room temperature in a supine position. Analogously, samples were taken again after 24, 48 and 72 h (PMI 1–3), respectively. Yet, PM PB specimens were obtained by sampling the coagulated blood from the V. femoralis or V. brachialis. For this purpose, the whole vessel was sampled and the blood was drawn therefrom using a pipette with a wide lumen.
Specimens were prepared according to a previous published method (Schaefer et al. [2017], [2019], [2020a]) with changes regarding the applied buffers and the amount of acetonitrile. An amount of 2 g of solid tissue (brain, lung, liver, kidney and muscle tissue) was homogenized (1:5 w/w with water), respectively and 1 g of body fluids (bile fluid, duodenum content, and urine) was diluted (1:10 w/w for bile and duodenum content, 1:5 w/w for urine, respectively, with water). The samples were stored at − 20 °C.
To determine the standard addition calibration curves, four 0.5 g aliquots were added to 20 µL of an ethanolic stable-isotope-labeled internal standard solution (SIL-IS, 1 ng/20 µL AB-FUBINACA-d4) and 25 µL of ethanol or an ethanolic solution of the analytes.
Subsequently, the solution was mixed with 500 µL of acetate buffer and 50 µL of β-glucuronidase/arylsulfatase and incubated for 2 h at 60 °C to induce enzymatic hydrolysis of the glucuronidated DBA (phase-II metabolite).
For the following protein precipitation, the samples were mixed with 500 µL of acetonitrile and centrifuged at 3500g for 8 min. The supernatants were transferred to 1 mL phosphate buffer (pH 9) vortexed and centrifuged at 3500g for 8 min again.
Solid phase extraction (SPE) was carried out using Strata C18 end capped cartridges (Phenomenex, Aschaffenburg, Germany), previously conditioned with 2 × 3 mL methanol and 3 mL phosphate buffer. After loading the samples, the columns were washed with 3 mL phosphate buffer, 3 mL acetic acid (0.25 M) and 3 mL deionized water, respectively. 60 μL acetone was added and columns were dried for 5 min using negative pressure (about 33 kPa). Thereafter, the analytes were eluted with a mixture of 1.5 mL methanol-acetone (1:1, v/v) and the eluate was evaporated under a gentle stream of nitrogen at 60 °C. […]

[4] = 200 µg/kg BW inhalative, PMI 0 (8 h after administration)
[5] = 200 µg/kg BW inhalative, PMI 1 (24 h after euthanasia, room temperature)
[6] = 200 µg/kg BW inhalative, PMI 2 (48 h after euthanasia, room temperature)
[7] = 200 µg/kg BW inhalative, PMI 3 (72 h after euthanasia, room temperature)

COC(=O)[C@@H](NC(=O)c1cn(CC2CCCCC2)c2ccccc12)C(C)(C)C [MDMB-CHMICA]
quotient of central/peripheral blood (C/P ratio) ([1]; 12 h after death, ref Gaunitz et al. [2018]): ~1

CN1CCCCC1Cn1cc(C(=O)c2cccc3ccccc23)c2ccccc21 (stereo not drawn) [AM-1220]
central blood (CB) levels versus peripheral blood (PB) levels [1]: significantly exceeded

N#CCCCCn1cc(C(=O)c2cccc3ccccc23)c2ccccc21 [AM-2232]
central blood (CB) levels versus peripheral blood (PB) levels [1]: significantly exceeded

CC(C)(C)C(NC(=O)c1cn(CCCCCF)c2ncccc12)C(=O)O (stereo not drawn) [DBA, 5F-MDMB-P7AICA-dimethylbutanoic acid]
CB concentration in fatal case [2]: 46 ng/mL | PB concentration in fatal case [2]: 5.7 ng/mL | Mean concentration ± SD in CB (central blood) [3, 4]: 0.22 ± 0.11 n = 6 ng/mL | Mean concentration ± SD in bile fluid [3, 4]: 57 ± 100 n = 6 ng/g | Mean concentration ± SD in brain [3, 4]: tested negative and neg | Mean concentration ± SD in dorsal fat [3, 4]: 0.60 ± 0.35 n = 6 ng/g | Mean concentration ± SD in duodenum content [3, 4]: 82 ± 72 n = 6 ng/g | Mean concentration ± SD in kidney [3, 4]: 5.4 ± 4.7 n = 6 ng/g | Mean concentration ± SD in liver [3, 4]: 0.87 ± 0.37 n = 6 ng/g | Mean concentration ± SD in lung [3, 4]: 0.20 ± 0.071 n = 4 ng/g | Mean concentration ± SD in muscle [3, 4]: 0.14 ± 0.011 n = 3 ng/g | Mean concentration ± SD in perirenal fat [3, 4]: 8.8 ± 5.6 n = 6 ng/g | Mean concentration ± SD in s.c. fat [3, 4]: 1.1 ± 1.1 n = 6 ng/g | Mean concentration ± SD in urine [3, 4]: 78 ± 45 n = 6 ng/g | Mean concentration ± SD in CB (central blood) [3, 5]: 0.32 ± 0.40 n = 5 ng/mL | Mean concentration ± SD in PB (peripheral blood) [3, 5]: 0.47 ± 0.21 n = 6 ng/mL | Mean concentration ± SD in bile fluid [3, 5]: 37 ± 71 n = 6 ng/g | Mean concentration ± SD in brain [3, 5]: 0.13 ± 0.056 n = 6 ng/g | Mean concentration ± SD in dorsal fat [3, 5]: 0.28 ± 0.19 n = 6 ng/g | Mean concentration ± SD in duodenum content [3, 5]: 13 ± 15 n = 6 ng/g | Mean concentration ± SD in kidney [3, 5]: 5.1 ± 5.0 n = 6 ng/g | Mean concentration ± SD in liver [3, 5]: 1.2 ± 1.4 n = 6 ng/g | Mean concentration ± SD in lung [3, 5]: 0.33 ± 0.21 n = 5 ng/g | Mean concentration ± SD in muscle [3, 5]: 0.10 ± 0.027 n = 6 ng/g | Mean concentration ± SD in perirenal fat [3, 5]: 1.0 ± 1.2 n = 5 ng/g | Mean concentration ± SD in s.c. fat [3, 5]: 0.45 ± 0.46 n = 5 ng/g | Mean concentration ± SD in CB (central blood) [3, 6]: 0.21 ± 0.17 n = 5 ng/mL | Mean concentration ± SD in PB (peripheral blood) [3, 6]: 0.48 ± 0.16 n = 6 ng/mL | Mean concentration ± SD in brain [3, 6]: 0.18 ± 0.065 n = 6 ng/g | Mean concentration ± SD in dorsal fat [3, 6]: 0.16 ± 0.064 n = 4 ng/g | Mean concentration ± SD in kidney [3, 6]: 7.0 ± 5.9 n = 6 ng/g | Mean concentration ± SD in liver [3, 6]: 1.8 ± 1.2 n = 6 ng/g | Mean concentration ± SD in lung [3, 6]: 0.92 ± 0.69 n = 6 ng/g | Mean concentration ± SD in muscle [3, 6]: 0.11 ± 0.047 n = 5 ng/g | Mean concentration ± SD in perirenal fat [3, 6]: 2.0 ± 1.7 n = 6 ng/g | Mean concentration ± SD in s.c. fat [3, 6]: 0.18 ± 0.086 n = 5 ng/g | Mean concentration ± SD in CB (central blood) [3, 7]: 0.20 ± 0.10 n = 5 ng/mL | Mean concentration ± SD in PB (peripheral blood) [3, 7]: 0.28 ± 0.093 n = 6 ng/mL | Mean concentration ± SD in brain [3, 7]: 0.16 ± 0.043 n = 6 ng/g | Mean concentration ± SD in dorsal fat [3, 7]: 0.11 ± 0.033 n = 5 ng/g | Mean concentration ± SD in duodenum content [3, 7]: 9.0 ± 17 n = 6 ng/g | Mean concentration ± SD in kidney [3, 7]: 6.5 ± 5.9 n = 6 ng/g | Mean concentration ± SD in liver [3, 7]: 2.8 ± 1.9 n = 6 ng/g | Mean concentration ± SD in lung [3, 7]: 0.89 ± 0.57 n = 5 ng/g | Mean concentration ± SD in muscle [3, 7]: 0.17 ± 0.089 n = 6 ng/g | Mean concentration ± SD in perirenal fat [3, 7]: 4.6 ± 3.7 n = 6 ng/g | Mean concentration ± SD in s.c. fat [3, 7]: 0.27 ± 0.17 n = 5 ng/g | Concentration in bile fluid ([3]; 200 µg/kg BW inhalative, PMI 3 (72 h after euthanasia, room temperature), only sampled from 2 pigs): 7.5–120 n = 2^2 ng/g | Mean concentration ± SD in PB (peripheral blood) ([3]; 5F-MDMB-P7AICA 200 µg/kg BW inhalative, PMI 0 (8 h after administration)): 0.18 ± 0.11 n = 6 ng/mL | Postmortem redistribution (PMR) ([3]; 3 days storage at room temperature): no relevant PMR was observed | Amount in the remaining tissues ([3]; PMI 0, tissues other than urine, bile fluid, duodenum content, kidney, perirenal fat): less than 1 ng/g | Concentration change in bile and duodenum ([3]; PMI 2 compared to PMI 0, p < 0.05): decrease was statistically significant | Concentration change in dorsal and subcutaneous fat specimens ([3]; over the PMI): significant lower concentrations over time

Cc1ccc(C(=O)c2cn(CCCCCF)c3ccccc23)c2ccccc12 [MAM-2201]
central blood (CB) levels versus peripheral blood (PB) levels [1]: significantly exceeded
